Test results published in patent US7201899B2, “Materials and methods for management of hyperacute rejection in human xenotransplantation” (BresaGen Limited, priority 1994, dated 2007).
“Also recorded” adds a separate entry of the source.

Legend:
PK-1 and PAE's cells = experiment: Antibody staining and FACS analysis of porcine cells; type: binding; details: for inhibition of anti-GAL IgM and/or IgG staining of porcine cells by sugar: anti-GAL antibodies pre-incubated with sugar (0.1 M) at 37° C. for 30 min; for decrease of anti-GAL antibody staining of PAE's (FIG. 1): anti-GAL antibody pre-incubated with sugar, versus anti-GAL antibody alone
Description: C. Antibody Staining and FACS Analysis • 1) Add 2 ml TED to a 75 cm^2 culture flask containing PK-1 or PAE'S, and incubate at room temperature for 10 min. • 2) Add RPMI plus 10% FCS (5 ml) to neutralize trypsin. • 3) Pellet cells by centrifugation (700 g, 5 min, • 4) Wash cells by resuspension and centrifugation in Hanks Buffer (×2). • 5) Pellet cells by centrifugation (700 g, 5 min, 4° C.). • 6) Resuspend cell pellet in Hanks buffer containing purified anti-GAL antibodies, GAL-depleted serum or GAL-depleted IgG and incubate at 4° C. for 60 min. All antibodies were used undiluted, or diluted 1:2 or 1:4 in Hanks buffer. • 7) Add 1 ml of Hanks Buffer, pellet cells by centrifugation and aspirate off supernatant. • 8) Resuspend pellet in FITC-labelled sheep-anti-human IgG Fab2 or IgM Fab2 (Silenus, Hawthorn, Australia) diluted 1:80 in Hanks buffer. • 9) Incubate for 30 min. at 4° C. • 10) Wash three times with Hanks buffer; resuspend pellet from final wash in 0.5 ml Hanks buffer. • 11) Analyze stained samples using a FACScan II (Becton Dickinson) according to the manufacturer's instructions.
The specificity of the anti-GAL antibody binding to porcine cells was determined by examining the ability of sugars of various structures to inhibit antibody binding. In these competition studies the anti-GAL antibodies were pre-incubated with sugar (0.1 M) at 37° C. for 30 min before adding to the cells.

pig RBC = experiment: Hemagglutination of pig RBC by human serum: sugar inhibition; type: cell-based; details: for Inhibitory Concentration: inhibition of pig RBC hemagglutination by pooled human AB serum; for concentration range inhibiting agglutination (in words): pig RBC agglutination by human serum
Description: The methods used to investigate the hemagglutination of pig red blood cells (RBC's) by human serum was adapted from the methods described by Galili, J. Exp. Med. 160: 1579–81 (1984) and Severson, Immunol. 96: 785–789 (1966).
A. Media/Solution Preparation • 1. Human Serum Albumin (HSA) (CSL, Melbourne, Australia) (5 mg/ml) was dissolved in PBS, filter sterilized, and stored at 4° C. • 2. Preparation of sugars: • 1 M stock solutions of sugar were prepared by dissolving the amount indicated in 100 ml of PBS. Sodium azide was added (0.02%) and solutions stored at 4° C.
B. Preparation of Pig RBC'S • 1. Heparinised pig blood (Animal Resources, Clayton, Australia) is centrifuged at 800 RPM for 10 min to pellet the RBC. • 2. The RBC pellet is washed by resuspension in PBS (10 ml) and recentrifugation (repeated 3 times). After the final wash, the RBC pellet is resuspended in 10 ml PBS. • 3. A 0.5% solution of RBC's is prepared by adding 50 ul RBC solution (from step 2, above) to 10 ml PBS containing 0.5 g/100 ml of HSA.
C. Preparation of 96-well Microtitre Plates (Titretek. USA) • 1. Add 25 ul of PBS to each well. • 2. Add 25 ul of pooled human AB serum (CSL, Melbourne, Australia) to column 1 and serially dilute by removing 25 ul from column 1 and adding to column 2, then repeating by sequentially removing and adding 25 ul from and to each well across the plate, finally discarding 25 μl from column 11 and adding no serum to column 12. • 3. Add 25 ul of sugar solution to each row in decreasing concentrations down rows. No sugar solution is added to the final row. • 4. Incubate at 4° C. overnight and then at 37° C. for 30 min. • 5. Add 50 ul of 0.5% pig RBC to each well; vortex and incubate at room temperature for 2 hours. Determine agglutination visually. II. Results

[1] = test system: pig kidney, heart and liver sections; experiment: Immunostaining of pig tissues with anti-GAL antibodies; type: binding; details: pig renal cortex sections, proximal tubule brush borders; sugar 0.1 M
Description: Pig kidney was fixed in formalin and dehydrated before embedding in Paraplast. Pig heart and liver were fixed in paraformaldehyde-lysine-periodate fixative and snap frozen in O.C.T. embedding compound (10.24% w/w polyvinyl alcohol, 4.26% w/w polyethylene glycol, 85.50% w/w nonreactive ingredients; Tissue Tek®, Miles, Inc., Elkhart, Ind., USA). Four μm-thick sections of pig heart and liver and 2 μm-thick sections of kidney were incubated with purified anti-GAL antibodies (undiluted, 1:2 and 1:4) for 60 min. and then incubated with a fluorescein isothiocyanate (FITC)-conjugated sheep anti-human immunoglobulin F(ab′) fragment. (Silenus Laboratories, Hawthorn, Australia) (1:100) for 30 min. or a peroxidase-conjugated rabbit anti-human IgG (Dakopatts, Glostrup, Denmark) (1:50) for 60 min. Control sections were analyzed for autofluorescence, with the secondary antibody alone, or with the anti-GAL-depleted IgG or normal pig serum as the primary antibody. […] The specificity of the anti-GAL antibodies was tested by pre-incubating sections of pig renal cortex with a variety of sugars, including melibiose, lactose, sucrose and glucose at 0.1 M.

Row | Structure (SMILES) | inhibition of anti-GAL IgM and/or IgG staining of porcine cells by sugar (PK-1 and PAE's cells) | decrease of anti-GAL antibody staining of PAE's (FIG. 1) (PK-1 and PAE's cells) | Inhibitory Concentration (pig RBC) | concentration range inhibiting agglutination (in words) (pig RBC) | inhibition of anti-GAL antibody binding to pig tissue by sugar [1]
1 | OC[C@H]1O[C@@H](O[C@H]2[C@H](O)[C@@H](O)[C@@H](O)O[C@@H]2CO)[C@H](O)[C@@H](O)[C@H]1O [Lactose, 4-O-β-D.galactopyranosyl-α-D-glucose] | not inhibited | not affected significantly | >10^−1M | only inhibitory when very high concentrations were used | not inhibited
2 | O=C[C@H](O)[C@@H](O)[C@H](O)[C@H](O)CO[C@H]1O[C@H](CO)[C@H](O)[C@H](O)[C@H]1O [Melibiose, 6-O-α-D-galactopyranosyl-D-glucose] | inhibited | approximately 10 fold less | 0.0005 M | μM to mM range | reduced to near background; also recorded: inhibited
